In US20230181498A1, “NEW USE OF N,N-BIS-2-MERCAPTOETHYL ISOPHTHALAMIDE” (EMERAMED LIMITED, priority 2020, published 2023):

Key:
Type in all cases: in vivo, human
viral infections [1] = test: Treatment of Patient with ME/CFS I (case report)
Procedure: A person residing in Sweden and diagnosed with myalgic encephalomyelitis/chronic fatigue syndrome (ME/CFS), reported that they started to use NBMI extensively in 2010 starting with 600 mg/day for 1.5 months, then 400 mg/day for 1.5 months and then 300 mg/day for three months.
Due to ME/CFS, the person was often inflicted with viral infections.

viral infections [2] = test: Treatment of Patient with ME/CFS II (case report); settings: person with ME/CFS and long history of viral infections, 300 mg/day NBMI from 2010; self-reported
Excerpt: The person was often sick and had, therefore, a poor quality of life.

[3] = test system: common cold-like and/or flu-like illnesses; test: Treatment of Patient I (case report, daily NBMI); settings: man, up to 300 mg/day NBMI almost daily for approximately 14 years; self-reported
Procedure: A person residing in the USA reported taking doses of up to 300 mg/day NBMI almost daily since 2006.
Before taking NBMI, the person regularly became sick with such illnesses due to their work as a university professor and being an avid outdoorsman.

[4] = test system: common cold-like and/or flu-like symptoms; test: Treatment of Patient II (case report, daily NBMI); settings: self-reported
Excerpt: A person residing in the USA, the spouse of Patient I, reported that they were often inflicted with common cold-like and/or flu-like symptoms due to their profession as a registered nurse.

[5] = person with ME/CFS, 2010, 600 then 400 then 300 mg/day, self-reported

## O=C(NCCS)c1cccc(C(=O)NCCS)c1 [NBMI, N,N-bis-2-mercaptoethyl isophthalamide]
Viral infections [1]; person with ME/CFS, 300 mg/day again from late 2011, self-reported
  frequency and severity of infections on restarting NBMI: got fewer and less severe
Viral infections [1]; person with ME/CFS, 2010, 600 mg/day for 1.5 months, then 400 mg/day for 1.5 months, then 300 mg/day for three months, self-reported
  frequency of viral infections: viral infections became fewer
Viral infections [1]; [5]
  intensity of viral infections (pain, headache, fatigue, time bedridden): intensity was less severe
  recovery time from viral infections: recovery time was quicker
Viral infections [1]; person with ME/CFS, after halting NBMI in summer 2010, self-reported
  frequency and severity of viral infections after halting the treatment: viral infections became more frequent and more severe
Viral infections [1]; person with ME/CFS, occasional NBMI when inflicted with a virus infection, compared with not taking NBMI, patient's impression
  severity and duration of virus infection when NBMI is taken during infection: less severe and shorter in duration
Viral infections [2]
  occurrence of viral infections: no longer suffered from viral infections
[3]
  occurrence of common cold-like and/or flu-like illnesses: has not become unwell with common cold-like and/or flu-like illnesses
[4]; person, NBMI daily, over the past 5 years
  common cold-like and/or flu-like symptoms, recent years: has not experienced any such symptoms
[4]; registered nurse, NBMI daily since 2010
  flu-like symptoms after starting NBMI: great decrease in having flu-like symptoms
